Data published in the pKa sets of Baltruschat and Czodrowski (2020).
Where a SMILES comes first, the peptide text is derived from it. [ ]: non-standard residue; d: D form. pGlu = O=C1CC[C@@H](C(=O)O)N1

Settings: acidic group

pKa	SMILES
4.48	O=C(O)CCC(=O)c1cccc2ccccc12
1.37	O=C(O)c1c(Br)cccc1[N+](=O)[O-]
3.61	NS(=O)(=O)c1cccc(C(=O)O)c1
3.86	CCOc1ccc(C)c(C(=O)O)c1
8.89	CONC(=O)c1ccccc1
3.09	O=C(O)C#COc1ccccc1
4.25	O=C(O)C(c1ccc(-c2ccccc2)cc1)C(O)c1ccccc1 (configuration not stated)
7.8	Cc1c(-c2ccccc2)nn(-c2ccccc2)c1O
3.96	O=C(O)c1cccc(S)c1
4.88	O=C(O)CCCCc1ccccc1
3.7	O=C(O)c1cccc2cc3ccccc3cc12
4.64	O=C(O)/C=C/c1ccc(O)cc1
3.18	Cc1cccc(OCC(=O)O)c1
10.2	NC(=O)CN(CCN(CC(N)=O)Cc1ccccc1O)Cc1ccccc1O
12.4	CCOC(=O)c1ccccc1-n1nc(O)c(CC)c1C
4.98	O=C(O)c1cc[nH]c1
6.3	COC(=O)c1ccccc1S
4.48	CC(C)COc1ccc(C(=O)O)cc1
9.6	CN1C(=O)N/C(=C\c2ccccc2)C1=O
5.3	CC1c2cc(O)ccc2CC1CC(=O)O (configuration not stated)
3.58	Cc1ccc(Br)cc1C(=O)O
7.6	O=C([O-])c1ccccc1S
11.5	c1ccc(CNc2nnc(-c3ccccc3)s2)cc1
2.1	N[n+]1ccccc1O

The remaining lines, values behind:

SMILES	pKa
COc1ccc2c(c1)[nH]c1c(C)nccc12	13.5
CC(=O)C(C)C(C)(C)C(=O)O (configuration not stated)	5.79
Nc1ccc(S(=O)(=O)Nc2cnc(Cl)nc2)cc1	5.8
[NH3+]C(c1cccc(O)c1[O-])P(=O)([O-])[O-] (configuration not stated)	12.4
NC(=O)CC(=O)O	3.61
Oc1cc2cccnc2c2cccnc12	8.5
Cn1cnc2[nH]c(=O)[nH]c(=O)c21	8.45
Nc1n[nH]c(N)c1/N=N/c1ccc(O)cc1	7.81
Cc1cc(NS(=O)(=O)c2ccc(N)cc2)nc(C)n1	7.49
Nc1ccc(S(=O)(=O)Nc2ccc(O)cn2)cc1	7.5
O=C(O)C#CCl	1.89
C=C(C)[C@H]1C[NH2+][C@H](C(=O)O)[C@H]1CC(=O)O	2.1
CC1CC(C)C(=O)CC1=O (configuration not stated)	5.62
Cc1ccc(C(N)=S)cc1	12.8
CC1(C)CC(=O)C(Br)C(=O)C1	3.1
CC1=CC(=O)CC(=O)O1	5
CC/C(C)=C\C(=O)O	5.15
COc1cc2ccc(=O)oc2cc1O	6.5
CCCCC(CC)C(=O)O[C@H]1O[C@@H](C(=O)O)[C@H](O)[C@@H](O)[C@@H]1O (some centres not stated)	3.08
C[C@@H]1CCCC[C@@H]1C(=O)O	5.04
CC1(C)CC(=O)CC(=O)C1	5.21
COc1ccc(O)c(CNC(CO)C(=O)[O-])c1 (configuration not stated)	10.4
N#CCC#N	11.2
Cn1cnc(/N=N/O)n1	5.48
O=Cc1cc(Br)cc([N+](=O)[O-])c1O	4.46

SMILES	pKa
NC(=O)[C@H](CCC(=O)O)NC=O	4.3
Cc1cc(O)cc([N+](C)(C)C)c1	8.2
CC(=O)c1ccc(O)c([N+](=O)[O-])c1	5.09
CCC(CC)C(=O)O[C@H]1O[C@@H](C(=O)O)[C@H](O)[C@@H](O)[C@@H]1O	3.37
OCc1nc2cc(Cl)ccc2[nH]1	11.5
Cn1c(=S)[nH]c2cc3c(cc21)CCCC3	10.8
O=C(O)c1ccc(Cl)c([N+](=O)[O-])c1	3.33
CCC#CC#CC(=O)O	1.91
S=c1[nH]c2cc3c(cc2[nH]1)CCCC3	10.4
COc1ccc(C(=O)O)cc1C	4.35
CC1(C)[C@H]2CC[C@@]1(C)[C@@H](O)[C@H]2C(=O)O	2.05
Cc1ccnc(NS(=O)(=O)c2ccc(N)cc2)n1	6.59
COc1ccc([Se]O)c([N+](=O)[O-])c1	10.7
CC1NCCc2c1[nH]c1ccc(Cl)cc21 (configuration not stated)	15.2
CN1CC(O)C2=C/C(=N\O)C(=O)C=C21 (configuration not stated)	8.6
CC(=O)c1ccc(O)c(=O)cc1	5.01
Cc1cc(Br)cc(Br)c1O	7.6
C/C(O)=N\[N+](C)(C)C	5.42
C[C@H](NC(=O)[C@H](CCC(N)=O)NC(=O)[C@@H]1CCC(=O)N1)C(=O)O ([pGlu]-Gln-Ala-OH)	3.67
Oc1ccc2ccncc2c1	8.88
Cn1c[nH+]cc1C[C@H](NC(=O)CC[NH3+])C(=O)O	2.64
Sc1cccc2ccc[nH+]c12	2.05
CC1CCC[C@H](C(C)C(=O)O)C1 (some centres not stated)	4.59
Cc1ccc(S(N)(=O)=O)cc1C	9.62

Same assay, conditions: basic group

pKa	SMILES
4.11	OCCN(CCO)c1ccccc1
5.74	c1coc(CNCC[NH2+]Cc2ccco2)c1
5.77	C(=C/c1ccncc1)/c1ccccc1

Further lines, the compound ahead of its results:

SMILES	pKa
Nc1ccnc2ccc3ncccc3c12	7.3
O=[PH]([O-])C([NH2+]Cc1cccnc1)c1ccccc1O (configuration not stated)	3.25
COc1ccc2c(c1)[nH]c1c(C)nccc12	7.73
Cn1ncc2c(N)nc(Cl)nc21	2.69
NC12CCC(C1)C2	9.3
C#CCN(CC#C)CC#C	3.04
CNNC1CC[NH+](C(C)C)CC1	6.2
Nc1ccc(/C=C/c2cc(N)c3ccccc3n2)cc1	9.5
Cc1cc(-c2ccc(N)c(C)c2)ccc1N	4.64
CCN1[C@H](C)[C@@H]1C (some centres not stated)	8.57
Nc1c2ccccc2nc2c1ccc1c([N+](=O)[O-])cccc12	7.1
